Laboratory results: patent publication US20060223846A1, “Aza-bridged-bicyclic amino acid derivatives as alpha4 integrin antagonists” (priority 2005, published 2006)

Legend:
human α4β7 = target: T1, human α4β7 (Homo sapiens, UniProt P13612+P26010); experiment: α4β7-K562 Cell Adhesion Assay (α4β7 Mediated Adhesion/VCAM-1); assay type: cell-based; settings: K562 cells expressing human α4β7 on recombinant hVCAM-1; read-out: α4β7 IC50
T1 construct: expressed in transfected cells
T1 sequence (P13612 34-1032): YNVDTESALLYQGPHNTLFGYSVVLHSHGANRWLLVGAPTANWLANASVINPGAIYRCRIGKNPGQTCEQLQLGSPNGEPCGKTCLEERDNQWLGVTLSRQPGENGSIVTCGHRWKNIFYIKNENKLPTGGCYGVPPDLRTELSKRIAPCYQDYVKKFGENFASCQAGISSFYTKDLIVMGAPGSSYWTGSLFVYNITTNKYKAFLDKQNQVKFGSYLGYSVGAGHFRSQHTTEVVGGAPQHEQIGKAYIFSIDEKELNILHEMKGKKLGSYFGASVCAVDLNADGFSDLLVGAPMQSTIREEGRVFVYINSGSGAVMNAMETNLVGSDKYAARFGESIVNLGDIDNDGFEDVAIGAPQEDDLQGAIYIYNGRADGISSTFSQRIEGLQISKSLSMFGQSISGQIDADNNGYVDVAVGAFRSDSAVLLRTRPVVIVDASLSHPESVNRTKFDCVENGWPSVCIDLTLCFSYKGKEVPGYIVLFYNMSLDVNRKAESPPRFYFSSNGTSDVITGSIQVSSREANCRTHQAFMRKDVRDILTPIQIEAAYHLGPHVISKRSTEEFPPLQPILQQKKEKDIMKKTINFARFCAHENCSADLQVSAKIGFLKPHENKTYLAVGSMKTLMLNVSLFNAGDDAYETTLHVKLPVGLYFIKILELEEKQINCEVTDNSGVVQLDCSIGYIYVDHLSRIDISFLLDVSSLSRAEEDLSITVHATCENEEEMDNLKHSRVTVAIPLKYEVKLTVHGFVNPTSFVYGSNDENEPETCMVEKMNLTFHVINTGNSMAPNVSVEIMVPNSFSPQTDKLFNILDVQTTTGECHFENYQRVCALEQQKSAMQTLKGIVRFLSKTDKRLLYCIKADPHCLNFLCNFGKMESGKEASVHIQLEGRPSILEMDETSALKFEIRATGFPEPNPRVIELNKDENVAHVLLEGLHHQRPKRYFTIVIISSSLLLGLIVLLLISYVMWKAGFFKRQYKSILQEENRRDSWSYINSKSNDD
T1 sequence (P26010 20-798): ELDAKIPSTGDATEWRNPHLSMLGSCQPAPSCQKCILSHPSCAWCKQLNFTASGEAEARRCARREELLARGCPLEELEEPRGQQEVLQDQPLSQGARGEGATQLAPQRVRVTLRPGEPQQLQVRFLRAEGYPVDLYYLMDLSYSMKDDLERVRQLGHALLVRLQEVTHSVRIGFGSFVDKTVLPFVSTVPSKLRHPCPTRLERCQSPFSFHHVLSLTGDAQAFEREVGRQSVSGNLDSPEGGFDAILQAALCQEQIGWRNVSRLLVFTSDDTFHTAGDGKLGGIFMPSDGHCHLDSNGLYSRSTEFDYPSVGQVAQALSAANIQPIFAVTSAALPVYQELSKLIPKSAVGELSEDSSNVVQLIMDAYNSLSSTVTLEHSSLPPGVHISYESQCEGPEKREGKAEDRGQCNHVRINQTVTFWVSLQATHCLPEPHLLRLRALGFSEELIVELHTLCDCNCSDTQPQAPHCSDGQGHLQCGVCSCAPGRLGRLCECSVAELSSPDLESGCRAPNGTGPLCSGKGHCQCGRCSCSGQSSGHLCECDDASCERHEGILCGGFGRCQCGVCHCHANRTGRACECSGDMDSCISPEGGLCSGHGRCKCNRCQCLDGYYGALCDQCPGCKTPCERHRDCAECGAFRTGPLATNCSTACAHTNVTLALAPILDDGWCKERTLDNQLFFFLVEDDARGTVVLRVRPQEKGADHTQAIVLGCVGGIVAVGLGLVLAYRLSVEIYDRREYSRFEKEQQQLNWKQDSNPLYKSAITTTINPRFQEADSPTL
How it was run: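 Calcein AM-labelled K562 cells stably expressing human α4β7 adhered for 1 h at room temperature, with compound, to wells coated with recombinant hVCAM-1 (4.0 μg/mL, pH 9.0) and blocked with PBS/1% BSA. After washing, cells were lysed in 1% SDS/Tris pH 8.0 and fluorescence read at 485/530 nm.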

α4β1 = α4β1 (Homo sapiens, UniProt P05556+P13612); experiment: Ramos Cell Adhesion Assay (α4β1 Mediated Adhesion/VCAM-1); assay type: cell-based; parameters: Ramos cells, (50 μL at 2×10^6/mL) labeled with 5 μM Calcein AM; endogenous in cells; host or cells: Ramos cells; settings: Ramos cells on recombinant hVCAM-1; read-out: α4β1 IC50
Chain of α4β1 (P05556 21-798, one chain of several): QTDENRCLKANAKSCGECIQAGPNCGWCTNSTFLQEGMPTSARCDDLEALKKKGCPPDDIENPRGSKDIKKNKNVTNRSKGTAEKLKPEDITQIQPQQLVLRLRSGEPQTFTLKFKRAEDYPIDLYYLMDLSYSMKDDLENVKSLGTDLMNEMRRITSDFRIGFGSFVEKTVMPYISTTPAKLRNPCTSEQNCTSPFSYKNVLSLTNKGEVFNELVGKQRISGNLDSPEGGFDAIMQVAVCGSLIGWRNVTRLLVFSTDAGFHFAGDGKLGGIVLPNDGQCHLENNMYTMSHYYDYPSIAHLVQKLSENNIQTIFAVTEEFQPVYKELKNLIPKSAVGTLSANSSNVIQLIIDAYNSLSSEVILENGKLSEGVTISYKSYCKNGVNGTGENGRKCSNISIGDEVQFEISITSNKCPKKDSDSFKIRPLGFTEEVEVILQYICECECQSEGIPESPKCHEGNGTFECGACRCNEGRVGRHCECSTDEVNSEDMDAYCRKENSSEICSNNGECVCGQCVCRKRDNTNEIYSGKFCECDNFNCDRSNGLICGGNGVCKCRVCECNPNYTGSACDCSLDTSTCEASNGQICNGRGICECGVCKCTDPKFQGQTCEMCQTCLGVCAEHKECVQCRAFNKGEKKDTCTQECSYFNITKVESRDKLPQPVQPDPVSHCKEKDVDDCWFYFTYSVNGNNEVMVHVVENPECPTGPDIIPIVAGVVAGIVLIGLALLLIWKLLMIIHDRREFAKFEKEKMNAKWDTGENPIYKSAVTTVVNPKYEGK
How it was run: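 Ramos cells labeled with 5 μM Calcein AM adhered for 1 h at room temperature to wells coated with recombinant human VCAM-1 (4.0 μg/mL, pH 9.0) in presence of compounds. After washing, cells lysed in SDS buffer; fluorescence read at 485/530 nm.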

Structure (SMILES) | IC50 (human α4β7) [nM] | IC50 (α4β1) [nM]
O=C(Nc1ccc(CC(NC(=O)C2C3CCC(CC3)N2C(=O)Cc2ccsc2)C(=O)O)cc1)c1c(Cl)cncc1Cl (stereo not shown) [Cpd 3] | 41 | 43
CC(C)(C)CCN1C2CCC(CC2)[C@H]1C(=O)N[C@@H](Cc1ccc(NC(=O)c2c(Cl)cncc2Cl)cc1)C(=O)O [Cpd 16, 3-{4-[(3,5-dichloro-pyridine-4-carbonyl)-amino]-phenyl}-2-{[2-(3,3-dimethyl-butyl)-2-aza-bicyclo[2.2.2]octane-3-carbonyl]-amino}-propionic acid] | 94 | 47
